# Test system: RA patients
# Assay: [HDL] determination, Study 1 (RA patients, add-on to MTX)
# Format: in vivo, human
# Method: Double-blind, placebo-controlled add on study in subjects with moderately to severely active RA who have an inadequate response to methotrexate (MTX) (oral or parenteral).
# 595 subjects randomized to one of 6 dose regimens of Compound 1 (dosed as a [Compound 1:HCl:3H2O]) (3 dose levels administered either once or twice daily) or placebo on top of each subject's stable dose of MTX.
# Compound 1 (dosed as a [Compound 1:HCl:3H2O]) is dosed for twelve weeks once daily (q.d.) (50 mg, 100 mg or 200 mg) or twice daily (b.i.d.) (25 mg, 50 mg or 100 mg); or placebo.
# At Week 12, the subjects on placebo who have not achieved 20% improvement in swollen joint count (SJC66) and tender joint count (TJC68) are re-randomized automatically to receive Compound 1 (dosed as a [Compound 1:HCl:3H2O]) either at 100 mg q.d. or 50 mg b.i.d. doses in a blinded fashion; subjects on 50 mg q.d. who have not achieved 20% improvement in SJC66 and TJC68 will be assigned to 100 mg q.d. and subjects on 25 mg b.i.d. that have not achieved a 20% improvement in SJC66 and TJC68 will be assigned to 50 mg b.i.d. Subjects who switch treatment at week 12 are handled as if they discontinued at week 12 for the purpose of statistical analysis, whereas subjects in the other groups will maintain their randomized treatment until Week 24.
# This assay relies on a homogeneous enzymatic colorimetric test. In the presence of magnesium ions, dextran sulfate selectively forms water-soluble complexes with LDL, VLDL and chylomicrons which are resistant to PEG-modified enzymes.
# The cholesterol concentration of [HDL]-cholesterol is determined enzymatically by cholesterol esterase and cholesterol oxidase coupled with PEG to the amino groups (approx. 40%).
# In the presence of peroxidase, the hydrogen peroxide generated reacts with 4-amino-antipyrine and Sodium N-(2-hydroxy-3-sulfopropyl)-3,5-dimethoxyaniline (HSDA) to form a purple-blue dye. The color intensity of this dye is directly proportional to the cholesterol concentration and is measured photometrically.
# Human serum and plasma samples [HDL] determination was done on a Roche/Hitachi Cobas c 701/702 system which automatically calculate the analyte concentration of each sample. Samples containing precipitates are centrifuged before performing the assay.
# [1] = 2 x 25 mg b.i.d. (N = 86), week 1
# [2] = 2 x 25 mg b.i.d. (N = 86), week 2
# [3] = 2 x 25 mg b.i.d. (N = 86), week 4
# [4] = 2 x 25 mg b.i.d. (N = 86), week 8
# [5] = 2 x 25 mg b.i.d. (N = 86), week 12
# [6] = 2 x 50 mg b.i.d. (N = 85), week 1
# [7] = 2 x 50 mg b.i.d. (N = 85), week 2
# [8] = 2 x 50 mg b.i.d. (N = 85), week 4
# [9] = 2 x 50 mg b.i.d. (N = 85), week 8
smiles,measurement,setting,value
"O=C(Nc1nc2cccc(-c3ccc(CN4CCS(=O)(=O)CC4)cc3)n2n1)C1CC1 [Compound 1, cyclopropanecarboxylic acid {5-[4-(1,1-dioxo-thiomorpholin-4-ylmethyl)-phenyl]-[1,2,4]triazolo[1,5-a]pyridin-2yl}-amide]",[HDL] Mean CFB - 12 weeks results,"50 mg q.d. (N = 82), week 1",0.02 mmol/L
same,[HDL] Mean percentage CFB - 12 weeks results,"50 mg q.d. (N = 82), week 1",2%
same,[HDL] Median CFB - 12 weeks results,"50 mg q.d. (N = 82), week 1",0.01 mmol/L
same,[HDL] Mean CFB - 12 weeks results,"50 mg q.d. (N = 82), week 2",0.08 mmol/L
same,[HDL] Mean percentage CFB - 12 weeks results,"50 mg q.d. (N = 82), week 2",5%
same,[HDL] Median CFB - 12 weeks results,"50 mg q.d. (N = 82), week 2",0.08 mmol/L
same,[HDL] Mean CFB - 12 weeks results,"50 mg q.d. (N = 82), week 4",0.06 mmol/L
same,[HDL] Mean percentage CFB - 12 weeks results,"50 mg q.d. (N = 82), week 4",5%
same,[HDL] Median CFB - 12 weeks results,"50 mg q.d. (N = 82), week 4",0.05 mmol/L
same,[HDL] Mean CFB - 12 weeks results,"50 mg q.d. (N = 82), week 8",0.06 mmol/L
same,[HDL] Mean percentage CFB - 12 weeks results,"50 mg q.d. (N = 82), week 8",6%
same,[HDL] Median CFB - 12 weeks results,"50 mg q.d. (N = 82), week 8",0.10 mmol/L
same,[HDL] Mean CFB - 12 weeks results,"50 mg q.d. (N = 82), week 12",0.06 mmol/L
same,[HDL] Mean percentage CFB - 12 weeks results,"50 mg q.d. (N = 82), week 12",7%
same,[HDL] Median CFB - 12 weeks results,"50 mg q.d. (N = 82), week 12",0.05 mmol/L
same,[HDL] Mean CFB - 12 weeks results,"100 mg q.d. (N = 85), week 1",0.05 mmol/L
same,[HDL] Mean percentage CFB - 12 weeks results,"100 mg q.d. (N = 85), week 1",5%
same,[HDL] Median CFB - 12 weeks results,"100 mg q.d. (N = 85), week 1",0.06 mmol/L
same,[HDL] Mean CFB - 12 weeks results,"100 mg q.d. (N = 85), week 2",0.07 mmol/L
same,[HDL] Mean percentage CFB - 12 weeks results,"100 mg q.d. (N = 85), week 2",7%
same,[HDL] Median CFB - 12 weeks results,"100 mg q.d. (N = 85), week 2",0.07 mmol/L
same,[HDL] Mean CFB - 12 weeks results,"100 mg q.d. (N = 85), week 4",0.11 mmol/L
same,[HDL] Mean percentage CFB - 12 weeks results,"100 mg q.d. (N = 85), week 4",9%
same,[HDL] Median CFB - 12 weeks results,"100 mg q.d. (N = 85), week 4",0.13 mmol/L
same,[HDL] Mean CFB - 12 weeks results,"100 mg q.d. (N = 85), week 8",0.09 mmol/L
same,[HDL] Mean percentage CFB - 12 weeks results,"100 mg q.d. (N = 85), week 8",8%
same,[HDL] Median CFB - 12 weeks results,"100 mg q.d. (N = 85), week 8",0.11 mmol/L
same,[HDL] Mean CFB - 12 weeks results,"100 mg q.d. (N = 85), week 12",0.10 mmol/L
same,[HDL] Mean percentage CFB - 12 weeks results,"100 mg q.d. (N = 85), week 12",8%
same,[HDL] Median CFB - 12 weeks results,"100 mg q.d. (N = 85), week 12",0.10 mmol/L
same,[HDL] Mean CFB - 12 weeks results,"200 mg q.d. (N = 86), week 1",0.11 mmol/L
same,[HDL] Mean percentage CFB - 12 weeks results,"200 mg q.d. (N = 86), week 1",9%
same,[HDL] Median CFB - 12 weeks results,"200 mg q.d. (N = 86), week 1",0.13 mmol/L
same,[HDL] Mean CFB - 12 weeks results,"200 mg q.d. (N = 86), week 2",0.20 mmol/L
same,[HDL] Mean percentage CFB - 12 weeks results,"200 mg q.d. (N = 86), week 2",17%
same,[HDL] Median CFB - 12 weeks results,"200 mg q.d. (N = 86), week 2",0.20 mmol/L
same,[HDL] Mean CFB - 12 weeks results,"200 mg q.d. (N = 86), week 4",0.24 mmol/L
same,[HDL] Mean percentage CFB - 12 weeks results,"200 mg q.d. (N = 86), week 4",20%
same,[HDL] Median CFB - 12 weeks results,"200 mg q.d. (N = 86), week 4",0.25 mmol/L
same,[HDL] Mean CFB - 12 weeks results,"200 mg q.d. (N = 86), week 8",0.29 mmol/L
same,[HDL] Mean percentage CFB - 12 weeks results,"200 mg q.d. (N = 86), week 8",22%
same,[HDL] Median CFB - 12 weeks results,"200 mg q.d. (N = 86), week 8",0.30 mmol/L
same,[HDL] Mean CFB - 12 weeks results,"200 mg q.d. (N = 86), week 12",0.27 mmol/L
same,[HDL] Mean percentage CFB - 12 weeks results,"200 mg q.d. (N = 86), week 12",21%
same,[HDL] Median CFB - 12 weeks results,"200 mg q.d. (N = 86), week 12",0.26 mmol/L
same,[HDL] Mean CFB - 12 weeks results,[1],0.00 mmol/L
same,[HDL] Mean percentage CFB - 12 weeks results,[1],0%
same,[HDL] Median CFB - 12 weeks results,[1],0.00 mmol/L
same,[HDL] Mean CFB - 12 weeks results,[2],0.04 mmol/L
same,[HDL] Mean percentage CFB - 12 weeks results,[2],4%
same,[HDL] Median CFB - 12 weeks results,[2],0.05 mmol/L
same,[HDL] Mean CFB - 12 weeks results,[3],0.05 mmol/L
same,[HDL] Mean percentage CFB - 12 weeks results,[3],4%
same,[HDL] Median CFB - 12 weeks results,[3],0.05 mmol/L
same,[HDL] Mean CFB - 12 weeks results,[4],0.06 mmol/L
same,[HDL] Mean percentage CFB - 12 weeks results,[4],5%
same,[HDL] Median CFB - 12 weeks results,[4],0.10 mmol/L
same,[HDL] Mean CFB - 12 weeks results,[5],0.06 mmol/L
same,[HDL] Mean percentage CFB - 12 weeks results,[5],6%
same,[HDL] Median CFB - 12 weeks results,[5],0.05 mmol/L
same,[HDL] Mean CFB - 12 weeks results,[6],0.03 mmol/L
same,[HDL] Mean percentage CFB - 12 weeks results,[6],4%
same,[HDL] Median CFB - 12 weeks results,[6],0.05 mmol/L
same,[HDL] Mean CFB - 12 weeks results,[7],0.12 mmol/L
same,[HDL] Mean percentage CFB - 12 weeks results,[7],10%
same,[HDL] Median CFB - 12 weeks results,[7],0.10 mmol/L
same,[HDL] Mean CFB - 12 weeks results,[8],0.13 mmol/L
same,[HDL] Mean percentage CFB - 12 weeks results,[8],12%
same,[HDL] Median CFB - 12 weeks results,[8],0.13 mmol/L
same,[HDL] Mean CFB - 12 weeks results,[9],0.13 mmol/L
same,[HDL] Mean percentage CFB - 12 weeks results,[9],11%
same,[HDL] Median CFB - 12 weeks results,[9],0.14 mmol/L

# From US10376520B2, “Methods for the treatment of cardiovascular disorders” (Galapagos NV, priority 2015, dated 2019)
